According to patent publication US10836727B2, “Crystal forms of lenvatinib” (Indena S.P.A., priority 2016, dated 2020):

How the values were obtained:
[1] = XRPD of the sample recovered at the end of DVS analysis; assay type: physicochemical; conditions: methanesulfonate
Experimental: The X-ray powder diffractogram (XRPD) has been obtained using the instrument X′Pert PRO PANalytical with single scan, using Kα1 radiation. The diffractogram is measured in reflection mode in the range 3-40° 2θ.

[2] = DVS analysis (percentage change in mass as function of relative humidity change); assay type: physicochemical; conditions: for sorption and desorption of water (reversibility): methanesulfonate
Source text: DVS analysis, shown in FIG. 11, reports the percentage change in mass as of the relative humidity change.
The DVS analysis, shown in FIG. 22, reports the percentage change in mass as function of the relative humidity change.

Structure (SMILES)	diffractogram / crystal structure after DVS [1]	sorption and desorption of water (reversibility) ([2]; DVS analysis)	mass increased percentage ([2]; DVS, between 40% and 80% RH of the absorption cycle)	hygroscopicity classification ([2]; from DVS mass increase between 40% and 80% RH)	weight loss of the sample between the start and the end of analysis ([2]; DVS analysis, compatible with the loss of 1 mol of DMSO)
COc1cc2nccc(Oc3ccc(NC(=O)NC4CC4)c(Cl)c3)c2cc1C(N)=O [H2O-1, 4-[3-Chloro-4-(N′-cyclopropylureido)phenoxy]-7-methoxyquinoline-6-carboxamide methanesulfonate]	did not show any important modification	reversible	10.9%	hygroscopic	
COc1cc2nccc(Oc3ccc(NC(=O)NC4CC4)c(Cl)c3)c2cc1C(N)=O [ACA-1 HT DRY, 4-[3-Chloro-4-(N′-cyclopropylureido)phenoxy]-7-methoxyquinoline-6-carboxamide methanesulfonate]	quite amorphous but its crystal structure did not change	not very reversible			
COc1cc2nccc(Oc3ccc(NC(=O)NC4CC4)c(Cl)c3)c2cc1C(N)=O [DMSO-2, 4-[3-Chloro-4-(N′-cyclopropylureido)phenoxy]-7-methoxyquinoline-6-carboxamide methanesulfonate]		not reversible			12.34%
